From the supplement of paper PMC10331698
± gives the standard deviation of the averaged measurements.

Key:
Assay in all cases: level (log10 ratio to DMSO vehicle control); higher = higher biomarker level / cell amount than vehicle control
Conditions in all cases: in DMSO
Hexafluoroglutaric acid = compound: O=C(O)C(F)(F)C(F)(F)C(F)(F)C(=O)O [Hexafluoroglutaric acid]
Procedure: (§1)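 BioMAP Diversity Plus panel of 12 human primary cell co-culture systems (3C, 4H, LPS, SAg, BT, BF4T, BE3C, CASM3C, HDF3CGF, KF3CT, MyoF, Mphg). Compounds were added 1 h before stimulation and left for 24 h (MyoF 48 h; BT 72 h for soluble read-outs or 6 d for IgG). Biomarkers were read by ELISA, cytotoxicity by SRB, PBMC viability and proliferation by Alamar Blue. Each well value was divided by the mean of 8 DMSO control wells on the same plate and log10 transformed; duplicate blinded samples were tested at 4 concentrations.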

[1] = compound: CNS(=O)(=O)C(F)(F)C(F)(F)C(F)(F)C(F)(F)C(F)(F)C(F)(F)C(F)(F)C(F)(F)F [N-Methylperfluorooctanesulfonamide]
Procedure: as §1

[2] = compound: O=S(=O)(O)C(F)(F)C(F)(F)C(F)(F)C(F)(F)C(F)(F)C(F)(F)C(F)(F)C(F)(F)F [Perfluorooctanesulfonic acid]
Procedure: as §1

Azathioprine = compound: Cn1cnc([N+](=O)[O-])c1Sc1ncnc2[nH]cnc12 [Azathioprine]
Procedure: as §1

[3] = compound: O=C(O)C(F)(F)OC(F)(F)C(F)(F)OC(F)(F)C(F)(F)C(F)(F)C(F)(F)F [Perfluoro-3,6-dioxadecanoic acid]
Procedure: as §1

[4] = compound: O=C(O)C(F)(F)C(F)(F)C(F)(F)C(F)(F)C(F)(F)C(F)(F)C(F)(F)C(F)(F)C(F)(F)C(F)(F)C(F)(F)C(F)(F)F [Perfluorotridecanoic acid]
Procedure: as §1

| Test System | level (log10) (Hexafluoroglutaric acid; 6700 nM) | level (log10) (Hexafluoroglutaric acid; 20000 nM) | level (log10) (Hexafluoroglutaric acid; 60000 nM) | level (log10) ([1]; 6700 nM) | level (log10) ([1]; 20000 nM) | level (log10) ([1]; 60000 nM) | level (log10) ([2]; 6700 nM) | level (log10) ([2]; 20000 nM) | level (log10) ([2]; 60000 nM) | level (log10) (Azathioprine; 1400 nM) | level (log10) (Azathioprine; 4200 nM) | level (log10) (Azathioprine; 13000 nM) | level (log10) (Azathioprine; 38000 nM) | level (log10) ([3]; 6700 nM) | level (log10) ([3]; 20000 nM) | level (log10) ([3]; 60000 nM) | level (log10) ([4]; 1500 nM) | level (log10) ([4]; 4400 nM) | level (log10) ([4]; 13000 nM) | level (log10) ([4]; 40000 nM) |
| --- | --- | --- | --- | --- | --- | --- | --- | --- | --- | --- | --- | --- | --- | --- | --- | --- | --- | --- | --- | --- |
| HDF3CGF:SRB | -0.03 ± 0.083 | -0.0095 ± 0.097 | 0.0245 ± 0.12 | -0.032 ± 0.03 | 0.005 ± 0.023 | -0.008 ± 0.014 | 0.008 ± 0.037 | -0.009 ± 0.027 | -0.0365 ± 0.035 | -0.0505 ± 0.04 | -0.053 ± 0.02 | -0.018 ± 0.025 | -0.0325 ± 0.079 | 0.0265 ± 0.033 | 0.0885 ± 0.022 | 0.0485 ± 0.079 | -0.0195 ± 0.035 | -0.007 ± 0.021 | 0.063 ± 0.054 | 0.067 ± 0.075 |
| HDF3CGF:TIMP-1 | -0.0385 ± 0.026 | -0.02 ± 0.072 | -0.045 ± 0.073 | 0.0335 ± 0.016 | -0.025 ± 0.038 | 0.012 ± 0.02 | -0.0015 ± 0.021 | 0.0165 ± 0.026 | 0.0895 ± 0.061 | -0.0195 ± 0.005 | -0.0115 ± 0.033 | -0.018 ± 0.024 | -0.0695 ± 0.06 | -0.0085 ± 0.00071 | 0.006 ± 0.11 | 0.0755 ± 0.083 | 0.027 ± 0.028 | -0.0075 ± 0.044 | -0.023 ± 0.069 | -0.04 ± 0.051 |
| HDF3CGF:TIMP-2 | -0.041 ± 0.0014 | 0.01 ± 0.0028 | -0.0345 ± 0.0021 | -0.094 ± 0.0057 | -0.136 ± 0.046 | -0.049 ± 0.044 | -0.028 ± 0.0085 | -0.0695 ± 0.043 | -0.149 ± 0.018 | -0.0175 ± 0.00071 | -0.023 ± 0.048 | 0.0315 ± 0.056 | 0.049 ± 0.018 | -0.0245 ± 0.028 | -0.035 ± 0.0085 | -0.0625 ± 0.0078 | 0.0455 ± 0.043 | 0.0415 ± 0.084 | 0.102 ± 0.019 | 0.0095 ± 0.013 |
| KF3CT:CCL2/MCP-1 | -0.0255 ± 0.04 | -0.0325 ± 0.067 | -0.0245 ± 0.0021 | 0.029 ± 0.017 | -0.01 ± 0.014 | -0.0185 ± 0.005 | -0.044 ± 0.017 | -0.0205 ± 0.0078 | 0.0005 ± 0.00071 | -0.0045 ± 0.0092 | -0.008 ± 0.0099 | -0.0335 ± 0.015 | -0.015 ± 0.0014 | -0.0115 ± 0.018 | -0.014 ± 0.0071 | -0.08 ± 0.0042 | 0.003 ± 0.076 | -0.007 ± 0.02 | -0.021 ± 0.031 | 0.018 ± 0.0042 |
| KF3CT:CD54/ICAM-1 | -0.0045 ± 0.00071 | -0.014 ± 0.0057 | -0.0015 ± 0.044 | 0.031 ± 0.03 | -0.035 ± 0.014 | 0.018 ± 0.0028 | -0.0085 ± 0.0035 | 0.003 ± 0.02 | 0.0115 ± 0.011 | -0.02 ± 0.0028 | 0.0015 ± 0.0092 | -0.005 ± 0.0085 | 0.0045 ± 0.011 | -0.0295 ± 0.023 | -0.0435 ± 0.0035 | -0.033 ± 0.0085 | -0.03 ± 0.013 | -0.019 | -0.0285 ± 0.026 | 0.015 ± 0.017 |
| KF3CT:CXCL8/IL-8 | -0.0115 ± 0.025 | -0.006 ± 0.0057 | -0.0135 ± 0.0021 | -0.039 ± 0.041 | -0.158 ± 0.037 | -0.106 ± 0.02 | -0.005 ± 0.0085 | -0.0135 ± 0.035 | -0.012 ± 0.035 | -0.0045 ± 0.015 | -0.0225 ± 0.025 | -0.0545 ± 0.019 | -0.0335 ± 0.016 | -0.019 ± 0.011 | -0.0145 ± 0.00071 | -0.103 ± 0.014 | -0.0035 ± 0.04 | -0.009 ± 0.037 | -0.006 ± 0.033 | -0.0315 ± 0.06 |
| KF3CT:CXCL9/MIG | -0.007 ± 0.0014 | -0.0075 ± 0.0064 | -0.0065 ± 0.0021 | -0.008 ± 0.0057 | -0.0015 ± 0.0092 | -0.0035 ± 0.023 | -0.007 ± 0.0042 | 0.0025 ± 0.0035 | 0.0075 ± 0.012 | -0.0015 ± 0.00071 | -0.008 ± 0.0014 | -0.005 ± 0.0099 | 0.0205 ± 0.015 | -0.0095 ± 0.0064 | -0.002 ± 0.0028 | -0.005 ± 0.0085 | -0.002 ± 0.0071 | -0.0015 ± 0.005 | -0.0035 ± 0.0064 | -0.0685 ± 0.079 |
| KF3CT:CXCL10/IP-10 | -0.001 | -0.01 ± 0.0014 | 0.005 ± 0.0014 | 0.0005 ± 0.04 | 0.003 ± 0.034 | 0.0255 ± 0.026 | -0.012 ± 0.02 | -0.0065 ± 0.03 | -0.015 ± 0.013 | 0.0135 ± 0.00071 | -0.0035 ± 0.0021 | -0.0105 ± 0.011 | -0.0035 ± 0.019 | -0.022 ± 0.0042 | -0.0335 ± 0.011 | -0.113 ± 0.028 | -0.009 ± 0.0071 | -0.011 ± 0.0028 | -0.015 ± 0.017 | -0.06 ± 0.044 |
| KF3CT:IL-1alpha | -0.021 ± 0.014 | 0.012 ± 0.013 | -0.0395 ± 0.012 | 0.0585 ± 0.026 | 0.0435 ± 0.026 | 0.051 ± 0.016 | 0.0105 ± 0.0064 | -0.0165 ± 0.00071 | -0.016 ± 0.0028 | -0.015 ± 0.0099 | 0.01 ± 0.013 | 0.0115 ± 0.005 | 0.035 ± 0.0042 | 0.022 ± 0.0057 | -0.0495 ± 0.013 | -0.0295 ± 0.005 | -0.025 ± 0.0099 | -0.0435 ± 0.0035 | -0.074 ± 0.018 | -0.1075 ± 0.00071 |
| KF3CT:MMP-9 | -0.001 ± 0.023 | 0.015 ± 0.021 | 0.005 ± 0.0099 | 0.0055 ± 0.005 | -0.0495 ± 0.0035 | -0.098 ± 0.027 | -0.0195 ± 0.013 | -0.013 | -0.0705 ± 0.015 | -0.008 ± 0.011 | 0.0015 ± 0.0064 | -0.0255 ± 0.0064 | -0.0375 ± 0.011 | -0.012 ± 0.014 | 0.005 ± 0.034 | 0.0215 ± 0.0078 | 0.0045 ± 0.012 | -0.007 ± 0.0028 | -0.0155 ± 0.013 | -0.0265 ± 0.019 |
| KF3CT:PAI-I | -0.004 ± 0.0042 | -0.0005 ± 0.005 | 0.0045 ± 0.0092 | 0.0465 ± 0.0078 | 0.101 ± 0.0071 | 0.0425 ± 0.028 | -0.0255 ± 0.013 | -0.058 ± 0.02 | -0.135 ± 0.052 | 0.01 ± 0.024 | -0.0105 ± 0.015 | -0.0365 ± 0.011 | -0.071 ± 0.0071 | -0.007 ± 0.0014 | -0.0325 ± 0.0078 | -0.0495 ± 0.021 | -0.006 ± 0.028 | -0.0155 ± 0.015 | -0.0135 ± 0.023 | -0.052 ± 0.027 |
| KF3CT:SRB | -0.0055 ± 0.0021 | -0.011 ± 0.0057 | 0.003 ± 0.018 | -0.0005 ± 0.00071 | -0.0035 ± 0.0078 | -0.002 ± 0.024 | -0.0195 ± 0.0021 | -0.012 ± 0.0042 | -0.012 ± 0.0099 | 0.003 ± 0.0057 | 0.0015 ± 0.0064 | 0.001 ± 0.0057 | -0.0065 ± 0.0021 | -0.0175 ± 0.011 | -0.022 ± 0.013 | -0.013 ± 0.031 | 0.0015 ± 0.00071 | -0.0055 ± 0.0021 | -0.0095 ± 0.0021 | -0.035 ± 0.0042 |
| KF3CT:TIMP-2 | -0.026 ± 0.014 | -0.028 ± 0.0042 | -0.013 ± 0.011 | 0.0185 ± 0.0035 | 0.022 ± 0.024 | 0.008 ± 0.0028 | -0.01 ± 0.0014 | -0.0085 ± 0.016 | 0.0225 ± 0.025 | -0.041 ± 0.013 | 0 ± 0.021 | 0.0385 ± 0.0078 | 0.0585 ± 0.011 | -0.038 ± 0.0099 | -0.0255 ± 0.043 | -0.03 ± 0.024 | 0.0125 ± 0.016 | 0.028 ± 0.013 | 0.0165 ± 0.022 | 0.0295 ± 0.015 |
| KF3CT:uPA | -0.019 ± 0.024 | -0.0055 ± 0.0035 | -0.011 ± 0.011 | 0.007 ± 0.014 | -0.011 ± 0.014 | -0.0085 ± 0.012 | -0.001 ± 0.0057 | -0.012 ± 0.018 | -0.021 ± 0.0057 | 0.011 ± 0.0028 | 0.015 ± 0.016 | -0.003 ± 0.0071 | -0.0025 ± 0.0078 | -0.0095 ± 0.0064 | -0.0065 ± 0.03 | 0.0095 ± 0.005 | 0.0005 ± 0.018 | -0.003 ± 0.011 | 0.0035 ± 0.015 | -0.0035 ± 0.011 |
